From article PMC11631053, “A receptor-based assay to study the sweet and bitter tastes of sweeteners and binary sweet blends: the SWEET project” (Chemical Senses, 2024)
Like-named read-outs stand apart in the source and are kept apart here. Marks after values point to notes of the source that are not given here.

Experiments:
[1] = sucrose = 1, cited from earlier work
[2] = target: T1, TAS2R45 (Homo sapiens, UniProt P59539); assay: Calcium mobilization assay, HEK293T-Gα16gust44 cells expressing TAS2R45; details: maximal concentration tested: sucralose 100 mM, neotame 30 µM, Ace-K 300 mM, RebA 4 mM, RebM 4 mM, mogroside V 5 mM, erythritol 200 mM, D-allulose 500 mM, thaumatin 100 mM
T1 sequence (P59539 1-299): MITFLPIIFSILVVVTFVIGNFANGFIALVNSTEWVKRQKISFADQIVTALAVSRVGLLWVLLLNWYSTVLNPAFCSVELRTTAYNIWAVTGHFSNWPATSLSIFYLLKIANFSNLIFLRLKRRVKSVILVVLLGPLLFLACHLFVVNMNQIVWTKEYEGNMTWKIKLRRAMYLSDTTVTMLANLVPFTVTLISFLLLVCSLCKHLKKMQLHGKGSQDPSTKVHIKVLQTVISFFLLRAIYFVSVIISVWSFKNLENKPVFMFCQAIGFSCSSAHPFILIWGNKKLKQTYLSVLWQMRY
Protocol: (§1) Different concentration ranges were tested depending on the injected sweet compound. […] All of the concentration-receptor combinations were measured in triplicate, and each experiment was repeated at least 3 times. The Ca^2+ change was expressed as a fractional change in fluorescent light intensity: ΔF/F = (F − F0)/F0, where F was the fluorescent light intensity at each point, and F0 was the value of fluorescent light emitted prior to stimulus application. To calculate dose–response relationships, the changes in fluorescence upon stimulus application were averaged, mock-subtracted and baseline-corrected. The resulting obtained dose–response data were adjusted by using a 4-parameter logistic equation. The half-maximal effective concentration (EC50) was calculated by using SigmaPlot software (Systat Software, San Jose, CA, USA) as described in supplemental Supplementary Figs. S1, S2, and S3.

[3] = target: T2, TAS2R9 (Homo sapiens, UniProt Q9NYW1); assay: Calcium mobilization assay, HEK293T-Gα16gust44 cells expressing TAS2R9; details: maximal concentration tested: sucralose 100 mM, neotame 30 µM, Ace-K 300 mM, RebA 4 mM, RebM 4 mM, mogroside V 5 mM, erythritol 200 mM, D-allulose 500 mM, thaumatin 100 mM
T2 sequence (Q9NYW1 1-312): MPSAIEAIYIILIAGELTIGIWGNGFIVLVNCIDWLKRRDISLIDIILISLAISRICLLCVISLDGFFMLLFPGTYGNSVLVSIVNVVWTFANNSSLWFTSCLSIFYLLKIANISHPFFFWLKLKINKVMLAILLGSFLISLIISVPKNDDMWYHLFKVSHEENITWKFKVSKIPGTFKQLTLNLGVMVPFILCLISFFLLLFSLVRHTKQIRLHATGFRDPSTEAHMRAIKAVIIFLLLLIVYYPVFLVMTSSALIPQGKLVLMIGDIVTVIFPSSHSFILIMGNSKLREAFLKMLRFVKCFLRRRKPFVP
Protocol: as §1

[4] = target: T3, TAS2R43 (Homo sapiens, UniProt P59537); assay: Calcium mobilization assay, HEK293T-Gα16gust44 cells expressing TAS2R43; details: for Response of TAS2R43: maximal concentration tested: sucralose 100 mM, neotame 30 µM, Ace-K 300 mM, RebA 4 mM, RebM 4 mM, mogroside V 5 mM, erythritol 200 mM, D-allulose 500 mM, thaumatin 100 mM
T3 sequence (P59537 1-309): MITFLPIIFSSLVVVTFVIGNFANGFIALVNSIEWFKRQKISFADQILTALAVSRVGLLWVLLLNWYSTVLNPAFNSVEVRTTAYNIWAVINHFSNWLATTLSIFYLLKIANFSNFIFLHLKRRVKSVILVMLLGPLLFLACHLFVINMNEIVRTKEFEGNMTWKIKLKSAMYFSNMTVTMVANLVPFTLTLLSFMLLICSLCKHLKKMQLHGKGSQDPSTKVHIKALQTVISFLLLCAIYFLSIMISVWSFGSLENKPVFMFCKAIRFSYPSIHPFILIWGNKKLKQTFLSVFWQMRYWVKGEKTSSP
Protocol: (§2) Different concentration ranges were tested depending on the injected sweet compound. […] All of the concentration-receptor combinations were measured in triplicate, and each experiment was repeated at least 3 times. The Ca^2+ change was expressed as a fractional change in fluorescent light intensity: ΔF/F = (F − F0)/F0, where F was the fluorescent light intensity at each point, and F0 was the value of fluorescent light emitted prior to stimulus application. To calculate dose–response relationships, the changes in fluorescence upon stimulus application were averaged, mock-subtracted and baseline-corrected. The resulting obtained dose–response data were adjusted by using a 4-parameter logistic equation.

[5] = target: T4, TAS2R19 (Homo sapiens, UniProt P59542); assay: Calcium mobilization assay, HEK293T-Gα16gust44 cells expressing TAS2R19; details: maximal concentration tested: sucralose 100 mM, neotame 30 µM, Ace-K 300 mM, RebA 4 mM, RebM 4 mM, mogroside V 5 mM, erythritol 200 mM, D-allulose 500 mM, thaumatin 100 mM
T4 sequence (P59542 1-299): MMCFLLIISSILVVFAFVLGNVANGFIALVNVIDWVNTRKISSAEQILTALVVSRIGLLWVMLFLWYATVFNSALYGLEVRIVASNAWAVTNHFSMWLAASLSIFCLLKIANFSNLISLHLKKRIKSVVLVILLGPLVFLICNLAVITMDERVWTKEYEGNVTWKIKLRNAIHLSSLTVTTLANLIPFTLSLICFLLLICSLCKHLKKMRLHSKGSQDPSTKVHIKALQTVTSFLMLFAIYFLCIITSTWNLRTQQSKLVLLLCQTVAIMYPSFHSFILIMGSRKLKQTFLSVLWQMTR
Protocol: as §2

[6] = target: T5, TAS2R5 (Homo sapiens, UniProt Q9NYW4); assay: Calcium mobilization assay, HEK293T-Gα16gust44 cells expressing TAS2R5; details: maximal concentration tested: sucralose 100 mM, neotame 30 µM, Ace-K 300 mM, RebA 4 mM, RebM 4 mM, mogroside V 5 mM, erythritol 200 mM, D-allulose 500 mM, thaumatin 100 mM
T5 sequence (Q9NYW4 1-299): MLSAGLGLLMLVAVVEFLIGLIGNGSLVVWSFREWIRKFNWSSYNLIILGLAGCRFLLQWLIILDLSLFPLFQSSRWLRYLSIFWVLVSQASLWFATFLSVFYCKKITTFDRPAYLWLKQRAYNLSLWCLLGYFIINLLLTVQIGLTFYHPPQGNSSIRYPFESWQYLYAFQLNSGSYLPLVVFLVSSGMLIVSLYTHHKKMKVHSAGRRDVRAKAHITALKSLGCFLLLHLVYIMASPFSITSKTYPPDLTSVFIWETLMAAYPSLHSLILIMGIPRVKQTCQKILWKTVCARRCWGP
Protocol: as §1

[7] = target: T6, TAS2R38 (Homo sapiens, UniProt P59533); assay: Calcium mobilization assay, HEK293T-Gα16gust44 cells expressing TAS2R38; details: maximal concentration tested: sucralose 100 mM, neotame 30 µM, Ace-K 300 mM, RebA 4 mM, RebM 4 mM, mogroside V 5 mM, erythritol 200 mM, D-allulose 500 mM, thaumatin 100 mM
T6 sequence (P59533 1-333): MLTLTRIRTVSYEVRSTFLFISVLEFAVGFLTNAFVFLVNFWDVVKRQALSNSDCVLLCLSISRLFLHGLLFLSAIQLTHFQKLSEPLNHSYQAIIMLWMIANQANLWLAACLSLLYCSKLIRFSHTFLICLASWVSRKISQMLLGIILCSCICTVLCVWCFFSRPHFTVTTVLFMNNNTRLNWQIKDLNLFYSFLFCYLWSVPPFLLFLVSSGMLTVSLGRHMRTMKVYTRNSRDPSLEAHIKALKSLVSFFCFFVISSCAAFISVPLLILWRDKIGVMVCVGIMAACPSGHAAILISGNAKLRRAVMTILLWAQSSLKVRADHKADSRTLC
Protocol: as §2

[8] = target: T7, TAS2R13 (Homo sapiens, UniProt Q9NYV9); assay: Calcium mobilization assay, HEK293T-Gα16gust44 cells expressing TAS2R13; details: maximal concentration tested: sucralose 100 mM, neotame 30 µM, Ace-K 300 mM, RebA 4 mM, RebM 4 mM, mogroside V 5 mM, erythritol 200 mM, D-allulose 500 mM, thaumatin 100 mM
T7 sequence (Q9NYV9 1-303): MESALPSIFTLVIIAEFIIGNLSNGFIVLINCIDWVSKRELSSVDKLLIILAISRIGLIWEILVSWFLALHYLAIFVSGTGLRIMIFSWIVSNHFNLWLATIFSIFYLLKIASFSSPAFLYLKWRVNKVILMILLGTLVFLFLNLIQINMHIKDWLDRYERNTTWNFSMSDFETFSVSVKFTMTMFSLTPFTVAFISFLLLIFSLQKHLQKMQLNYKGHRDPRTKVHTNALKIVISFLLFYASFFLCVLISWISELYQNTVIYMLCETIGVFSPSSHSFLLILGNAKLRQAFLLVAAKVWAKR
Protocol: as §2

[9] = ref Schiffman and Gatlin (1993)

| Compound | Sweetness potency [1, 9] | Response of TAS2R45 [2] | Response of TAS2R9 [3] | Response of TAS2R43 [4] | Response of TAS2R19 [5] | Response of TAS2R5 [6] | Response of TAS2R38 [7] | Response of TAS2R13 [8] | Sweetness potency ([1]; ref Ko et al. (2020)) | concentrations at which TAS2R43 was activated [4] | Sweetness potency ([1]; ref Fujimaru et al. (2012)) | Sweetness potency ([1]; ref Jia and Yang (2009)) | Sweetness potency ([1]; ref Nofre and Tinti (2000)) | Sweetness potency ([1]; ref Prakash et al. (2014)) | Sweetness potency ([1]; ref van der Wel and Loeve (1972)) |
| --- | --- | --- | --- | --- | --- | --- | --- | --- | --- | --- | --- | --- | --- | --- | --- |
| CC1=CC(=O)NS(=O)(=O)O1 [Ace-K, acesulfame-K] | 200^g | − | − | §^b | − | − | − | − |  |  |  |  |  |  |  |
| O=C(CO)[C@H](O)[C@H](O)[C@H](O)CO [D-allulose] |  | − | − | + | + | − | + | − | 0.6^h | > 300 mM |  |  |  |  |  |
| OC[C@@H](O)[C@@H](O)CO [Erythritol, erythritol] |  | − | − | − | − | − | − | − |  |  | 0.9^f |  |  |  |  |
| C[C@H](CC[C@@H](O[C@@H]1O[C@H](CO[C@@H]2O[C@H](CO)[C@@H](O)[C@H](O)[C@H]2O)[C@@H](O)[C@H](O)[C@H]1O[C@@H]1O[C@H](CO)[C@@H](O)[C@H](O)[C@H]1O)C(C)(C)O)[C@H]1CC[C@@]2(C)[C@@H]3CC=C4[C@@H](CC[C@H](O[C@@H]5O[C@H](CO[C@@H]6O[C@H](CO)[C@@H](O)[C@H](O)[C@H]6O)[C@@H](O)[C@H](O)[C@H]5O)C4(C)C)[C@]3(C)[C@H](O)C[C@]12C [Mogroside V, mogroside V] |  | − | − | − | − | − | + | − |  |  |  | 500^c |  |  |  |
| COC(=O)[C@H](Cc1ccccc1)NC(=O)[C@H](CC(=O)O)NCCC(C)(C)C [Neotame] |  | − | − | − | − | − | − | − |  |  |  |  | 10,000^a |  |  |
| C=C1C[C@@]23CC[C@H]4[C@@](C)(CCC[C@@]4(C)C(=O)O[C@@H]4O[C@H](CO)[C@@H](O)[C@H](O[C@@H]5O[C@H](CO)[C@@H](O)[C@H](O)[C@H]5O)[C@H]4O[C@@H]4O[C@H](CO)[C@@H](O)[C@H](O)[C@H]4O)[C@@H]2CC[C@]1(O[C@@H]1O[C@H](CO)[C@@H](O)[C@H](O[C@@H]2O[C@H](CO)[C@@H](O)[C@H](O)[C@H]2O)[C@H]1O[C@@H]1O[C@H](CO)[C@@H](O)[C@H](O)[C@H]1O)C3 [RebM, Rebaudioside M] |  | − | − | − | − | − | − | − |  |  |  |  |  | 250^d |  |
| OC[C@H]1O[C@H](O[C@]2(CCl)O[C@H](CCl)[C@@H](O)[C@@H]2O)[C@H](O)[C@@H](O)[C@H]1Cl [Sucralose, sucralose] | 600^g | − | − | − | − | − | − | − |  |  |  |  |  |  |  |
| thaumatin |  | − | − | − | − | − | − | − |  |  |  |  |  |  | 100,000^b |
